Among the data in patent publication US9175011B2, “Morpholino substituted urea or carbamate derivatives as MTOR inhibitors” (CELLZOME LIMITED, priority 2011, dated 2015) are IC50 values, retold here.

Assay [1] deals with T1, mTOR (Homo sapiens, UniProt P42345).
T1 construct: Jurkat cells were homogenized in a Potter S homogenizer in lysis buffer; endogenous in cells; host or cells: Jurkat, clone E6-1 (ATCC TIB-152) lysate
As to the kind of experiment: mTOR kinobeads assay (Jurkat cell lysate, dot blot detection). It counts as binding. The following applies: read-out: Inhibition values (IC50) mTor. As to the method: (§1) The compounds of the present invention as described were tested in the mTOR kinobeads assay as described below. Briefly, test compounds (at various concentrations) and the affinity matrix (1:1 mixture of beads with immobilized phenylthiazole ligand 1 and beads with immobilized phenylmorpholin-chromen ligand; WO 2009/098021) were added to cell lysate aliquots and allowed to bind to the proteins in the lysate sample. After the incubation time the beads with captured proteins were separated from the lysate. Bound proteins were then eluted and the presence of mTOR, PI3K alpha (PI3Kα), PI3K beta (PI3Kb), PI3K gamma (PI3Kg), PI3K delta (PI3Kd) and DNA-dependent protein kinase (DNA-PK) was detected and quantified using a specific antibody in a dot blot procedure and the Odyssey infrared detection system. Dose response curves for individual kinases were generated and IC50 values calculated. Kinobeads assays for PI3 kinases (WO-A 2008/015013) and for kinase selectivity profiling (WO 2009/098021) have been previously described.
(§2) The affinity matrix (beads with immobilized phenylmorpholin-chromen ligand) was washed three times with 15 ml of 1×DP buffer containing 0.2% NP40 (IGEPAL® CA-630, Sigma, #13021) and then resuspended in 5.5 ml of 1×DP buffer containing 0.2% NP40 (10% beads slurry).
(§3) 5×DP buffer: 250 mM Tris-HCl pH 7.4, 25% Glycerol, 7.5 mM MgCl2, 750 mM NaCl, 5 mM Na3VO4, filter the 5×-lysis buffer through 0.22 μm filter and store in aliquots at −80° C. The 5×DP buffer is diluted to 1×DP buffer containing 1 mM DTT and 25 mM NaF.
(§4) Stock solutions of test compounds were prepared in DMSO. In a 96 well plate 30 μl solution of diluted test compounds at 5 mM in DMSO were prepared. Starting with this solution a 1:3 dilution series (9 steps) was prepared. For control experiments (no test compound) a buffer containing 2% DMSO was used. Compound PI-103 served as a positive control (Calbiochem catalogue number 528100).
(§5) Jurkat cells (ATCC catalogue number TIB-152 Jurkat, clone E6-1) were grown in 1 liter Spinner flasks (Integra Biosciences, #182101) in suspension in RPMI 1640 medium (Invitrogen, #21875-034) supplemented with 10% Fetal Bovine Serum (Invitrogen) at a density between 0.15×10^6 and 1.2×10^6 cells/ml. Cells were harvested by centrifugation, washed once with 1×PBS buffer (Invitrogen, #14190-094) and cell pellets were frozen in liquid nitrogen and subsequently stored at −80° C.
(§6) Jurkat cells were homogenized in a Potter S homogenizer in lysis buffer: 50 mM Tris-HCl, 0.8% NP40, 5% glycerol, 150 mM NaCl, 1.5 mM MgCl2, 25 mM NaF, 1 mM sodium vanadate, 1 mM DTT, pH 7.5. One complete EDTA-free tablet (protease inhibitor cocktail, Roche Diagnostics, 1873580) per 25 ml buffer was added. The material was dounced 10 times using a mechanized POTTER S, transferred to 50 ml falcon tubes, incubated for 30 minutes on ice and spun down for 10 min at 20,000 g at 4° C. (10,000 rpm in Sorvall SLA600, precooled). The supernatant was transferred to an ultracentrifuge (UZ)-polycarbonate tube (Beckmann, 355654) and spun for 1 hour at 100.000 g at 4° C. (33.500 rpm in Ti50.2, precooled). The supernatant was transferred again to a fresh 50 ml falcon tube, the protein concentration was determined by a Bradford assay (BioRad) and samples containing 50 mg of protein per aliquot were prepared. The samples were immediately used for experiments or frozen in liquid nitrogen and stored frozen at −80° C.
(§7) Jurkat cell lysate (approximately 50 mg protein per plate) was thawed in a water bath at room temperature and then kept on ice. To the thawed cell lysate 1×DP 0.8% NP40 buffer containing protease inhibitors (1 tablet for 25 ml buffer; EDTA-free protease inhibitor cocktail; Roche Diagnostics 1873580) was added in order to reach a final protein concentration of 5 mg/ml total protein. The diluted cell lysate was stored on ice. […]

The target of assay [2] is T2, PI3K alpha (PI3Kα) (Homo sapiens, UniProt P42336).
T2 construct: Jurkat cells were homogenized in a Potter S homogenizer in lysis buffer; endogenous in cells; host or cells: Jurkat, clone E6-1 (ATCC TIB-152) lysate
T2 sequence (P42336 whole entry): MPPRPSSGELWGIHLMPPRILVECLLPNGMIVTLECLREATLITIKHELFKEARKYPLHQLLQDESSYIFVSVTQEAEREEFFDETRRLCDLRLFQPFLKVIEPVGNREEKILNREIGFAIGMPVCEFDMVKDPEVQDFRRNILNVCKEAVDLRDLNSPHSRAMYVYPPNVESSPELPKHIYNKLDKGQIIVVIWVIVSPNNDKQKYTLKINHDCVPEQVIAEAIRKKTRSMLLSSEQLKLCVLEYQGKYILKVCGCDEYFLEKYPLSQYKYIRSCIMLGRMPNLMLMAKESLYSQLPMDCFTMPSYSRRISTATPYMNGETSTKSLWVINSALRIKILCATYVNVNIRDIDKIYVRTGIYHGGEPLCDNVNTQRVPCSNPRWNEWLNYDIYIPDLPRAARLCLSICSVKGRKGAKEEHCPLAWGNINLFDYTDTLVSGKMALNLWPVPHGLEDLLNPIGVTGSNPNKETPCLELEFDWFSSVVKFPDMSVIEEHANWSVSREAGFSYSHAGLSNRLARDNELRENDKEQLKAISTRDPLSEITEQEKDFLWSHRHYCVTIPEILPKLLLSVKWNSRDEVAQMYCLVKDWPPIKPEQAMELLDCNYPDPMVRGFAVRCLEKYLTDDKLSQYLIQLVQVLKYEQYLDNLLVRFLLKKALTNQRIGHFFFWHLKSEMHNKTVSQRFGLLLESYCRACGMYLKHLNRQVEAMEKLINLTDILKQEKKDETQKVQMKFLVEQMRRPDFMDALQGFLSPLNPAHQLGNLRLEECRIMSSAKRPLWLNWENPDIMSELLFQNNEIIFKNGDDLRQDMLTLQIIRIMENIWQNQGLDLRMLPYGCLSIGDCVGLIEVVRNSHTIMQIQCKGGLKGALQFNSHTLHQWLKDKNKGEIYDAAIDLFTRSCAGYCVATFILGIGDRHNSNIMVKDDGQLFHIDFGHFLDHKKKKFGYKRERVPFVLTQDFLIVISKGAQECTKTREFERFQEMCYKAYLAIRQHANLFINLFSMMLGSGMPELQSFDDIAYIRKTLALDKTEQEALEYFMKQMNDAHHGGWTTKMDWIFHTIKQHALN
T2 sequence (P27986 whole entry partner): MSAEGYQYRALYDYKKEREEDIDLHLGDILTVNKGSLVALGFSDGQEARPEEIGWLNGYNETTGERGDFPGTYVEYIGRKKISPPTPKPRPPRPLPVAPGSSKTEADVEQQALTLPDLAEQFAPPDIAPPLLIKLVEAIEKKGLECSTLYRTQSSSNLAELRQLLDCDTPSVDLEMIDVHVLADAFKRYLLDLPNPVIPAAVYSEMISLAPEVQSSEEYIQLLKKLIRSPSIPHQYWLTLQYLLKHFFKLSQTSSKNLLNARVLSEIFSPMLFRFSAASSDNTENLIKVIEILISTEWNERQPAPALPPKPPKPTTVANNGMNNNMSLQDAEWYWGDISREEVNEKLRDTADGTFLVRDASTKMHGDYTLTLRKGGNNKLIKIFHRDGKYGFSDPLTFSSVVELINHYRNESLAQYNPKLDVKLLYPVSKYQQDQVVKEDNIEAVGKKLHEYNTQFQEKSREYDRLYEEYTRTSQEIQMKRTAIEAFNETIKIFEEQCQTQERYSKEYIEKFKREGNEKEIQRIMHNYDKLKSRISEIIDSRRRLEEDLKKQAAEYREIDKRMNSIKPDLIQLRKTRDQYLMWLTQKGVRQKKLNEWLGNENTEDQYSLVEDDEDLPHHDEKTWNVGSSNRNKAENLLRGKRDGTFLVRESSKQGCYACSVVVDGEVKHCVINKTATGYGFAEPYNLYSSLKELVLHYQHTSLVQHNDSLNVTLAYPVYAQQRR
As to the kind of experiment: kinobeads assay, PI3K alpha. The assay is classed as binding. The following applies: Jurkat cell lysate, read-out: Inhibition values (IC50) PI3Ka. As to the method:
as §1, §2, §3, §4, §5, §6, §7

Assay [3] concerns the target T3, PI3K beta (PI3Kb) (Homo sapiens, UniProt P42338).
T3 construct: Jurkat cells were homogenized in a Potter S homogenizer in lysis buffer; endogenous in cells; host or cells: Jurkat, clone E6-1 (ATCC TIB-152) lysate
As to the kind of experiment: kinobeads assay, PI3K beta. The following applies: Jurkat cell lysate, read-out: Inhibition values (IC50) PI3Kb. The assay is classed as binding. The protocol: as §1, §2, §3, §4, §5, §6, §7

Assay [4] deals with T4, PI3K gamma (PI3Kg) (Homo sapiens, UniProt P48736).
T4 construct: Jurkat cells were homogenized in a Potter S homogenizer in lysis buffer; endogenous in cells; host or cells: Jurkat, clone E6-1 (ATCC TIB-152) lysate
T4 sequence (P48736 whole entry): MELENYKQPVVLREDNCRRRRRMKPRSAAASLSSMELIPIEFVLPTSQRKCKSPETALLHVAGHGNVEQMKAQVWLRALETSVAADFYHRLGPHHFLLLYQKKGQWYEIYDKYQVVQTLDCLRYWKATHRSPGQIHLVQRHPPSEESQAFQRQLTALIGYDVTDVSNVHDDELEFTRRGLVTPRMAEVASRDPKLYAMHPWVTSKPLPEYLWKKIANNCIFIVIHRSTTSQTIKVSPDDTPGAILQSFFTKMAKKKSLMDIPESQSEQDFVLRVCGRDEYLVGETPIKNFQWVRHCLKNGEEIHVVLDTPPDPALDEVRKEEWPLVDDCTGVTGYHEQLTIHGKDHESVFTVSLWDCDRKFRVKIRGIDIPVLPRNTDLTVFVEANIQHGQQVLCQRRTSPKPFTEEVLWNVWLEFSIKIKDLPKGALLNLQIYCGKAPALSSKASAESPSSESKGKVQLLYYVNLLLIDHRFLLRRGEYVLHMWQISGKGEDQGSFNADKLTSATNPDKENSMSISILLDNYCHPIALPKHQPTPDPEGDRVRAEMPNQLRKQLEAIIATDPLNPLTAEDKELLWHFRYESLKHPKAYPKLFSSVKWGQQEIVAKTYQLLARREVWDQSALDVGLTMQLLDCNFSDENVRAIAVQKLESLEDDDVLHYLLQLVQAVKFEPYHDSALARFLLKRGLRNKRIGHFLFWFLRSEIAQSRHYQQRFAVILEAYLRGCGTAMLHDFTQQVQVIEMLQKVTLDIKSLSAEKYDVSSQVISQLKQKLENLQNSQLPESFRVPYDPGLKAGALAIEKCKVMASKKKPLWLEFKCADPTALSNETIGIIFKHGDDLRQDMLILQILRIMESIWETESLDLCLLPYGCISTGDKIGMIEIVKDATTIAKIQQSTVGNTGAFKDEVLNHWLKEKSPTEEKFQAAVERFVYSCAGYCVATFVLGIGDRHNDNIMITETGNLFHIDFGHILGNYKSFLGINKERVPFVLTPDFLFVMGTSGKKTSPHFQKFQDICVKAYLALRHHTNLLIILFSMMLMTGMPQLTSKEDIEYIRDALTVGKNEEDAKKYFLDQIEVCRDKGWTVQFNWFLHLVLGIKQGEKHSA
As to the kind of experiment: kinobeads assay, PI3K gamma. It counts as binding. The following applies: Jurkat cell lysate, read-out: Inhibition values (IC50) PI3Kg. The protocol:
as §1, §2, §3, §4, §5, §6, §7

Assay [5] concerns the target T5, PI3K delta (PI3Kd) (Homo sapiens, UniProt O00329).
T5 construct: Jurkat cells were homogenized in a Potter S homogenizer in lysis buffer; endogenous in cells; host or cells: Jurkat, clone E6-1 (ATCC TIB-152) lysate
As to the kind of experiment: kinobeads assay, PI3K delta. Conditions: Jurkat cell lysate, read-out: Inhibition values (IC50) PI3Kd. It counts as binding. As to the method:
as §1, §2, §3, §4, §5, §6, §7

For assay [6], the target named is T6, DNA-dependent protein kinase (DNA-PK) (Homo sapiens, UniProt P78527).
T6 construct: Jurkat cells were homogenized in a Potter S homogenizer in lysis buffer; endogenous in cells; host or cells: Jurkat, clone E6-1 (ATCC TIB-152) lysate
As to the kind of experiment: kinobeads assay, DNA-PK. The assay is classed as binding. The following applies: Jurkat cell lysate, read-out: Inhibition values (IC50) DNA-PK. The protocol:
as §1, §2, §3, §4, §5, §6, §7

Assay [7] has as its system S6RP serine-240/244 phosphorylation. As to the kind of experiment: In vitro phospho-S6 cellular assay (HEK293T/17). The assay is classed as cell-based. The following applies: Homo sapiens; HEK293T/17 cells, 2 hours, pS6RP Ser240/244; read-out: Inhibition values (IC50) pS6. From the text:
Activation of mTOR signaling results in phosphorylation of several downstream targets. In cells, mTOR exists in two different protein complexes. The mTOR Complex-1 (mTORC1) phosphorylates and activates S6 Kinase 1 (S6K1) and S6 Kinase 2 (S6K2) (also known as p70S6K) which then phosphorylate S6 Ribosomal Protein (S6RP) (also known as RPS6)3. S6RP is phosphorylated on serine 235, senile 236, serine 240 and serine 244 by both pS6K1 and pS6K2. The mTOR Complex-2 (mTORC2) phosphorylates AKT on serine 473 which activates the AKT signaling pathway.
The assay measures a test compound's inhibition of S6RP serine-240/244 phosphorylation and inhibition of Akt serine-473 phosphorylation in human embryonic kidney derived HEK293T/17 cells (ATCC CRL-11268).
The HEK293T/17 cell line is maintained in DMEM media (Invitrogen catalogue number 41965-039) supplemented with 10% FCS at 37° C. in a 5% CO2 humidified incubator. Cells are seeded in 96-well plates at 40,000 cells/well (pS6RP S240/244 assay) or 80,000 cells/well (pAkt 5473 assay) in 90 μl growth media (DMEM, 2% FCS). Plates are incubated for 1 hour in a humidified incubator to allow the cells to adhere. Cells are treated with 8 concentrations of test compounds or DMSO alone for controls (final DMSO concentration 0.1%) and incubated at 37° C. for 2 hours. Then 20 μl of 5× concentrated lysis buffer (750 mM NaCl, 100 mM Tris pH7.4, 5 mM ADTA, 5 mM EGTA, 5% Triton X-100) is added, plates are sealed and incubated for 15 minutes at 4° C. with gentle shaking After cell lysis, 25 μl cell lysate is transferred to a MesoScale plate coated with an antibody to pS6RP Ser240/244 (MesoScale Discovery K150DGD-3) or an antibody to pAkt Ser 473 (MesoScale Discovery K151DGD-3). Plates have been blocked before by incubation with 150 μl MesoScale Discovery Blocking Solution-A for 1 hour at room temperature followed by washing with 150 μl 1×Tris wash buffer per well. After the transfer of the cell lysate to the MSD plate, the pS6RP (or pAkt) protein is captured on the coated antibody by incubation at room temperature for 1 hour with gentle shaking. After the capture step the plate is washed three times with 150 μl of 1× Tris wash buffer per well. Then 25 μl detection antibody conjugated with a Sulfo-Tag is added and incubated for 1 hour at room temperature with gentle shaking. Subsequently the antibody solution is removed and the plate is washed 3 times with 150 μl 1×Tris wash buffer per well and 150 μl Read buffer is added. The plates are analysed on a MSD 2400 Plate Reader (MesoScale Discovery). Data analysis is performed using nonlinear regression for a sigmoidal dose-response with a variable slope.

T5 sequence (O00329 whole entry): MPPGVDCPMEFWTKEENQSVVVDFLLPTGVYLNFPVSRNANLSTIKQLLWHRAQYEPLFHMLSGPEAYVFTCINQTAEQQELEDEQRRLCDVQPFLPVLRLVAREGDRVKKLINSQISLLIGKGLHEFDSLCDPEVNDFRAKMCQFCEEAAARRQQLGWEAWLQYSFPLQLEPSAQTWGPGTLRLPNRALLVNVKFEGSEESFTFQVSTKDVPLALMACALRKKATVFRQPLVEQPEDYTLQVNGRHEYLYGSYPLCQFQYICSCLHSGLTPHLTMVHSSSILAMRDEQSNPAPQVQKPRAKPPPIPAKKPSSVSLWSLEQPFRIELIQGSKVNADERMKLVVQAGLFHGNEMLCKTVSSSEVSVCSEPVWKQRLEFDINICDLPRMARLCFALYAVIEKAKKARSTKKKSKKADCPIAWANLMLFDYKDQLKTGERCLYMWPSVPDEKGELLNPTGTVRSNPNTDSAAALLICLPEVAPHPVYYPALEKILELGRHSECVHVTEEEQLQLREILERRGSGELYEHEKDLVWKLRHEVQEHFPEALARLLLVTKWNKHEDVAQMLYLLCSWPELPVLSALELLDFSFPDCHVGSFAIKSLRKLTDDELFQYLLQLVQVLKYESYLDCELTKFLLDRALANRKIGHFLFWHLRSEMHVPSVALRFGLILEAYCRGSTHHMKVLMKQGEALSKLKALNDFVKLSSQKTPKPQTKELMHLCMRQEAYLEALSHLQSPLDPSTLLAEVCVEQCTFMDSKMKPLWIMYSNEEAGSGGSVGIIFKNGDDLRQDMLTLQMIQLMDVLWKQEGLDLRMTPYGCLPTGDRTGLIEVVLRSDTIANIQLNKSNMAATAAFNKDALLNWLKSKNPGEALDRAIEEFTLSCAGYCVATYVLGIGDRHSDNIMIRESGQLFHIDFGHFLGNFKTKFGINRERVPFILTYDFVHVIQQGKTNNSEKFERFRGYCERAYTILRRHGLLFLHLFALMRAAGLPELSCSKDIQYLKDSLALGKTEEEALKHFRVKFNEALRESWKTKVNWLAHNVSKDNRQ
T5 sequence (P27986 whole entry partner): as the sequence (P27986 whole entry partner) above
T3 sequence (P42338 whole entry): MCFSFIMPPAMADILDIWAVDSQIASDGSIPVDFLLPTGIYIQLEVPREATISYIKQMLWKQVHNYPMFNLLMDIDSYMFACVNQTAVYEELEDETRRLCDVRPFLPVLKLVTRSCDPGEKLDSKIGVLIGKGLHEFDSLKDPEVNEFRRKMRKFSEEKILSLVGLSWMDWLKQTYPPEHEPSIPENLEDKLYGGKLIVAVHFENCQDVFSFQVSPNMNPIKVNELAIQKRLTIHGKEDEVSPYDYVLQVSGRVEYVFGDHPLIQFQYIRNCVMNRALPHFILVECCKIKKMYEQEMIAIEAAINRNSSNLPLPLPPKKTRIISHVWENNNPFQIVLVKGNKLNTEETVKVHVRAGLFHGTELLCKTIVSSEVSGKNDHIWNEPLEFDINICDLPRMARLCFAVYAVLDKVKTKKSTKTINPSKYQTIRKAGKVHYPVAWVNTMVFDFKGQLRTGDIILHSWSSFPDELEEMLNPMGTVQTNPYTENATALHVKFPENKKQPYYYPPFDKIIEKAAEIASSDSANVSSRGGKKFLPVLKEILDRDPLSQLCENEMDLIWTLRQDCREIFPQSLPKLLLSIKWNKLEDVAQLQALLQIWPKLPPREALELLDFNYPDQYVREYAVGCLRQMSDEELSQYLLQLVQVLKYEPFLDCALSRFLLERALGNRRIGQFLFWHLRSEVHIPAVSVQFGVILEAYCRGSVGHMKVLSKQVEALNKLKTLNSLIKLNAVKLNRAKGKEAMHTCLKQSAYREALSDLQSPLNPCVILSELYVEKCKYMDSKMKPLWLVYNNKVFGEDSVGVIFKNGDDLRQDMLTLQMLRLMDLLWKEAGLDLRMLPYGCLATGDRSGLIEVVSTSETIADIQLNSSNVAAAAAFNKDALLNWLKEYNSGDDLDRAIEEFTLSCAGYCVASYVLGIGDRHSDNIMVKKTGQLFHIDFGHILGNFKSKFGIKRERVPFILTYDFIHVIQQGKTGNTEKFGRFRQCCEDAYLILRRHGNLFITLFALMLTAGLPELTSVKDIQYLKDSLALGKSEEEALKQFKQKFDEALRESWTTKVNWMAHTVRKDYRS
T3 sequence (P27986 whole entry partner): as the sequence (P27986 whole entry partner) above

Usually IC50 stands for the concentration at which inhibition is half-maximal. Regarding `CC1(C)COCCN1c1nc(-c2ccc(NC(=O)NC3CC3)cc2)nc(-c2ccccc2S(C)(=O)=O)n1` [Example 22, 1-cyclopropyl-3-(4-(4-(3,3-dimethylmorpholino)-6-(2-(methylsulfonyl)phenyl)-1,3,5-triazin-2-yl)phenyl)urea], the IC50 in assay [1] is 0.1 to 1 µM; in assay [2], > 10 µM; in assay [3], > 10 µM; in assay [4] it was > 10 µM; in assay [5], > 10 µM; in assay [6] it was > 10 µM. Also, the IC50 in assay [7] is < 0.1 µM.

For `C[C@H]1COCCN1c1nc(-c2ccc(NC(=O)Nc3ccncc3)cc2)nc(-c2ccccc2S(C)(=O)=O)n1` [Example 35, (S)-1-(4-(4-(3-methylmorpholino)-6-(2-(methylsulfonyl)phenyl)-1,3,5-triazin-2-yl)phenyl)-3-(pyridin-4-yl)urea], the IC50 in assay [1] was 0.1 to 1 µM; in assay [2] it was > 10 µM; in assay [3], > 10 µM; in assay [4], > 10 µM; in assay [5] it was > 10 µM; in assay [6], > 10 µM. Also, the IC50 in assay [7] was < 0.1 µM.

As for `CCS(=O)(=O)c1ccccc1-c1nc(-c2ccc(NC(=O)NC3CC3)cc2)nc(N2CCOC[C@@H]2C)n1` [Example 17, (S)-1-cyclopropyl-3-(4-(4-(2-(ethylsulfonyl)phenyl)-6-(3-methylmorpholino)-1,3,5-triazin-2-yl)phenyl)urea], the IC50 was 0.1 to 1 µM in assay [1]; > 10 µM in assay [2]; > 10 µM in assay [3]; > 10 µM in assay [4]; > 10 µM in assay [5]; > 10 µM in assay [6]. In addition, the half-maximal inhibitory concentration (IC50) in assay [7] was < 0.1 µM.

`CS(=O)(=O)c1ccccc1-c1nc(-c2ccc(NC(=O)NC3CC3)cc2)nc(N2C3CCC2COC3)n1` [Example 16, 1-(4-(4-(3-oxa-8-azabicyclo[3.2.1]octan-8-yl)-6-(2-(methylsulfonyl)phenyl)-1,3,5-triazin-2-yl)phenyl)-3-cyclopropylurea]: the IC50 is 0.1 to 1 µM in assay [1]; > 10 µM in assay [2]; > 10 µM in assay [3]; > 10 µM in assay [4]; > 10 µM in assay [5]; > 10 µM in assay [6]. Further, the IC50 in assay [7] was < 0.1 µM.

Take `C[C@H]1COCCN1c1nc(-c2ccc(NC(=O)NC3CCOC3)cc2)nc(-c2ccccc2S(C)(=O)=O)n1` (stereo partly drawn) [Example 34, 1-(4-(4-((S)-3-methylmorpholino)-6-(2-(methylsulfonyl)phenyl)-1,3,5-triazin-2-yl)phenyl)-3-(tetrahydrofuran-3-yl)urea]: the IC50 was 0.1 to 1 µM in assay [1]; > 10 µM in assay [2]; > 10 µM in assay [3]; > 10 µM in assay [4]; > 10 µM in assay [5]; > 10 µM in assay [6]. Also, the IC50 in assay [7] was in the range of 0.1 to 1 µM.

With `CS(=O)(=O)c1ccccc1-c1nc(-c2ccc(NC(=O)NC3CC3)cc2)nc(N2CCOCC2CO)n1` (centres unmarked) [Example 23, 1-cyclopropyl-3-(4-(4-(3-(hydroxymethyl)morpholino)-6-(2-(methylsulfonyl)phenyl)-1,3,5-triazin-2-yl)phenyl)urea], the IC50 was 1 to 10 µM in assay [1]; > 10 µM in assay [2]; > 10 µM in assay [3]; > 10 µM in assay [4]; > 10 µM in assay [5]; > 10 µM in assay [6].

`C[C@H]1COCCN1c1nc(-c2ccc(NC(=O)NCC(C)(C)C)cc2)nc(-c2ccccc2S(C)(=O)=O)n1` [Example 30, (S)-1-(4-(4-(3-methylmorpholino)-6-(2-(methylsulfonyl)phenyl)-1,3,5-triazin-2-yl)phenyl)-3-neopentylurea]: the IC50 is 1 to 10 µM in assay [1]; > 10 µM in assay [2]; > 10 µM in assay [3]; > 10 µM in assay [4]; > 10 µM in assay [5]; > 10 µM in assay [6].

Take `C[C@H]1COCCN1c1nc(-c2ccc(NC(=O)NCCC(O)C(F)(F)F)cc2)nc(-c2ccccc2S(C)(=O)=O)n1` (stereo partly drawn) [Example 38, 1-(4-(4-((S)-3-methylmorpholino)-6-(2-(methylsulfonyl)phenyl)-1,3,5-triazin-2-yl)phenyl)-3-(4,4,4-trifluoro-3-hydroxybutyl)urea]: the IC50 in assay [1], in assay [2], in assay [3], in assay [4], in assay [5] and in assay [6] was > 10 µM each time.
